Source: ChEMBL document CHEMBL3886674, “Aminopyrimidine derivatives for use as modulators of kinase activity” (2016)

biological target: Ribosomal protein S6 kinase beta-1 (Homo sapiens, UniProt P23443, T412E); assay: Enzyme Assay: P70S6K inhibitor compounds were diluted and plated in 96 well plates. A reaction mixture including the following components was then added to the compound plate to initiate the enzyme reaction; P70S6K (3 nM, T412E mutant, Millipore) was mixed with 24 μM ATP in an assay buffer containing 100 mM Hepes (pH 7.5), 5 mM MgCl2, 1 mM DTT, 0.015% Brij and 1 μM of the substrate peptide FITC-AHA-AKRRRLSSLRA-OH (derived from the S6 ribosomal protein sequence, FITC=fluorescein isothiocyanate, AHA=6-aminohexanoic acid). The reaction was incubated for 90 min at 25° C., before the addition of 10 mM EDTA to stop the reaction.
Sequence (P23443 whole entry T412E): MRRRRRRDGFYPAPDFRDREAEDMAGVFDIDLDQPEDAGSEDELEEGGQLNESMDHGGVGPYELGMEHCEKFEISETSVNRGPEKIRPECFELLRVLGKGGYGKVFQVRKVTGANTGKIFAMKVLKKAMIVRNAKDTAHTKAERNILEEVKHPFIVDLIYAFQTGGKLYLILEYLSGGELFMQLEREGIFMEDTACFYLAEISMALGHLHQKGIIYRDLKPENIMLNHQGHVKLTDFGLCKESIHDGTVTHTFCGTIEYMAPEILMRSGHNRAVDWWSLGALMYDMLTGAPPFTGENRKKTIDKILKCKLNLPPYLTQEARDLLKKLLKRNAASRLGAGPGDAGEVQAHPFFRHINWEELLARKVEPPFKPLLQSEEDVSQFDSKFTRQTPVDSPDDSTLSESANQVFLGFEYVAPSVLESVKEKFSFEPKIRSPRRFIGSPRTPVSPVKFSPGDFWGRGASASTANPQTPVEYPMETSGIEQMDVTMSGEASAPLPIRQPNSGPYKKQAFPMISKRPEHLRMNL

Question: With `Nc1ncnc(N2CCC(C(N)c3ccc(Cl)cc3)CC2)c1-c1ccc(F)cc1` (stereo not drawn) as the compound, how does the IC50 read?
Answer: 13 nM

Question: `Nc1ncnc(N2CCC(C(N)c3ccc(-c4ccc(F)cc4)cc3)CC2)c1-c1ccc(F)cc1` (stereo not drawn) was tested. Which IC50 did it give?
Answer: 17 nM

Question: With `Nc1ncnc(N2CCC(C(N)c3ccc(F)cc3)CC2)c1-c1ccc(F)cc1` (stereo not drawn) as the compound, how does the IC50 read?
Answer: 27 nM
